Where two headings read alike, the source gives them in different places. Ends that are not written are not given here. Peptide text beside a SMILES is read from it. * marks the point of attachment. X1 = C/C(C(=O)O)=C(\C)C(=O)*

Series [1] deals with 3T3 mouse embryonic fibroblast cells. The series can be described thus: In vitro transfection with DNA-PLL-KL3 and dimethylmaleamic KL3, luciferase expression. The format is cell-based. Conditions: for Relative Light Units (luciferase expression): pCIluc DNA/poly-L-lysine complex plus named additive, 48 h, average of two wells; for Relative Light Units relative to Succinylated poly-L-lysine: value in parentheses. How it is done: To a complex of plasmid DNA pCIluc (10 μg/mL, 0.075 mM in phosphate, 2.6 μg/μL pCIluc; prepared according to Danko, I., Williams, P., Herweijer, H. Zhang, G., Latendresse, J. S., Bock, I., Wolff, J. A. Hum. Mol. Genetics 1997, 6, 1435.) and poly-L-lysine (40 μg/mL) in 0.5 mL of 5 mM HEPES pH 7.5 was added succinylated poly-L-lysine (34,000 MW, Aldrich Chemical), 2,3-dimethylmaleamic melittin and 2,3-dimethylmaleamic KL3. The DNA-poly-L-lysine-2,3-dimethylmaleamic peptide complexes were then added (200 μL) to wells containing 3T3 mouse embryonic fibroblast cells in 290 mM glucose and 5 mM HEPES buffer pH 7.5. After 1.5 h, the glucose media was replaced with Dubelco's modified Eagle Media and the cells were allowed to incubate for 48 h. The cells were then harvested and then assayed for luciferase expression as previously reported (Wolff, J. A., Malone, R. W., Williams, P., Chong, W., Acsadi, G., Jani, A. and Felgner, P. L. Direct gene transfer into mouse muscle in vivo. Science, 1465–1468, 1990.). A Lumat LB 9507 (EG&G Berthold, Bad-Wildbad, Germany) luminometer was used. The amount of transfection was reported in relative light units and is the average transfection for two separate wells of cells.

Series [2] shares this test system. The series is described as follows: In vitro transfection with DNA-PLL complexes with dimethylmaleamic KL3 and dimethylmaleamic KL3-PLL. The format is cell-based. Conditions: pCIluc DNA/poly-L-lysine complex plus 10 mg modified peptide; opti-MEM 4 h; 48 h. How it is done: To a complex of plasmid DNA pCIluc (10 μg/mL, prepared according to Danko, I., Williams, P., Herweijer, H. Zhang, G., Latendresse, J. S., Bock, I., Wolff, J. A. Hum. Mol. Genetics 1997, 6, 1435.) and poly-L-lysine (40 μg/mL) in 0.5 mL water was added 10 mg of 2,3-dimethylmaleamic -KL3-PLL or 2,3-dimethylmaleamic -KL3. The DNA-poly-L-lysine-2,3-dimethylmaleamic peptide complexes were then added (200 μL) to a well containing 3T3 mouse embryonic fibroblast cells in opti-MEM. After 4 h, the media was replaced with 90% Dubelco's modified Eagle Media and 10% fetal bovine serum the cells were then allowed to incubate for 48 h. The cells were then harvested and then assayed for luciferase expression as previously reported (Wolff, J. A., Malone, R. W., Williams, P., Chong, W., Acsadi, G., Jani, A. and Felgner, P. L. Direct gene transfer into mouse muscle in vivo. Science, 1465–1468, 1990.). A Lumat LB 9507 (EG&G Berthold, Bad-Wildbad, Germany) luminometer was used. The amount of transfection was reported in relative light units and is the average transfection for two separate wells of cells.

The nature of series [3]: Kinetics of conversion of dimethylmaleamic modified amines to amines at pH 5 (trinitrobenzenesulfonate). In kind it is physicochemical. How it is done: Dimethyl maleamic modified poly-L-lysine (10 mg/mL) was incubated in 10 mM sodium acetate buffer pH 5. At various times, aliquots (10 μg) were removed and added to 0.5 mL of 100 mM borax solution containing 0.4 mM trinitrobenzenesulfonate. A half an hour later, the absorbance of the solution at 420 nm was measured. To determine the concentration of amines at each time point, the extinction coefficient was determine for the product of trinitrobenzenesulfonate and poly-L-lysine. Using this extinction coefficient we were able to calculate the amount of amines and maleamic groups at each time point. A plot of ln (At/A0) as a function of time was a straight line whose slope is the negative of the rate constant for the conversion of maleamic acid to amine and anhydride, where At is the concentration of maleamic acid at a time t and A0 is the initial concentration of maleamic acid. For two separate experiments we calculated rate constants of […] which correspond to half lives of roughly 10 and 4 minutes respectively.
Dimethyl maleamic modified KL3 (0.1 mg/mL) was incubated in 40 mM sodium acetate buffer pH 5 and 1 mM cetyltrimetylammonium bromide. At various times, aliquots (10 μg) were removed and added to 0.05 mL of 1 M borax solution containing 4 mM trinitrobenzenesulfonate. A half an hour later, the absorbance of the solution at 420 nm was measured. […]

A short description of series [4]: Hemolysis assay: melittin or KL3 blocked by anionic polymer or dimethylmaleic anhydride. The format is cell-based. To be noted: pH 7.5, read-out: Percent hemolysis. How it is done:
The membrane-disruptive activity of the peptide melittin and subsequent blocking of activity by anionic polymers was measured using a red blood cell (RBC) hemolysis assay. RBCs were harvested by centrifuging whole blood for 4 min. They were washed three times with 100 mM dibasic sodium phosphate at the desired pH, and resuspended in the same buffer to yield the initial volume. They were diluted 10 times in the same buffer, and 200 uL of this suspension was used for each tube. This yields 10 ? 8 RBCs per tube. Each tube contained 800 uL of buffer, 200 uL of the RBC suspension, and the peptide with or without polymer. Each sample was then repeated to verify reproducibility. The tubes were incubated for 30 minutes in a 37 C water bath. They were spun for 5 min at full speed in the microcentifuge. Lysis was determined by measuring the absorbance of the supernatant at 541 nm, reflecting the amount of hemoglobin that had been released into the supernatant. Percent hemolysis was calculated assuming 100% lysis to be measured by the hemoglobin released by the red blood cells in water; controls of RBCs in buffer with no peptide were also run.

The subject of another series is red blood cells. The series can be described thus: Blood lysis experiment on melittin conjugated to microspheres via ketal. In kind it is cell-based. Conditions: control, 100% lysis with melittin alone. How it is done:
The microspheres were taken up in H2O (500 μL) and partitioned into five 100 μL samples. Four of the samples were diluted to 1000 μL with sodium phosphate buffer (100 mM) at pH 7.5, 6.0, 5.5, and 5.0. Samples were held at 37° C., spun down, and 150 μL aliquots taken at 30 min, 60 min, 90 min, and 16 hrs. A portion of each sample (100 μL) was diluted with sodium phosphate buffer (400 μL, pH 7.5) and added to red blood cells (100 μL, pH 7.5). Red blood cell lysis was measured after 10 min by measuring the absorbance at 541 nm. A control sample was also measured in which 100% of the red blood cells had been lysed with melittin alone.
The fifth 100 μL sample was further divided into 25 μL samples, three of which were diluted to 250 μL with sodium phosphate buffer (100 mM) at pH 7.5, 6.0, and 5.0. The samples were held at 37° C. for 30 min, spun down and the supernatant removed, and resuspended in 2.5 M NaCl solution (50 μL) and mixed. After 10 min the microspheres were spun down and the supernatant removed. The samples were added to red blood cells (500 μL, 100 mM) and the absorbance was measured at 541 nm.

A further series relates to HELA cells. The series can be described thus: Endosome disruption assay (FITC-dextran, propidium iodide). The format is cell-based. To be noted: 50 μg. How it is done:
HeLa cells were plated in 6-well tissue culture dishes containing microscope slide coverslips and grown in Delbecco's Modified Eagle's Medium (DMEM)+10% fetal calf serum+penn/strep for 24–48 hours until 30–60% confluent. […] After 25 min, media containing FITC-dextran±melittin was removed, the cells were washed twice with 1 ml 37° C. DMEM lacking FITC-dextran and melittin, and cells were incubated for an additional 35 min at 37° C. in 1 ml fresh DMEM. In order to assess possible cell lysis caused by melittin, propidium iodide was added for the final 5 min of incubation. […] However, if the plasma membrane has been damaged, propidium iodide enters the cell where it will brightly stain the nucleus. To process slides for analysis, cells were washed 3 times with cold phosphate buffered saline (PBS), fixed in PBS+4% formaldehyde for 20–30 min at 4° C., and washed again 3 times with cold PBS. Excess liquid was drained from coverslips which were then mounted onto glass slides. Fluorescence was then analyzed on a Zeiss LSM510 confocal microscope. FITC was excited by a 488 nm argon laser and fluorescence emission was detected by a long pass 505 nm filter. […] For cells incubated with unmodified melittin near 100% cell death was observed as determined by propidium iodide staining of nuclei and loss of cells from the sample.

The conditions of series [5]: 15 mM sodium acetate pH 5 buffer. How it is done: The absorbance of the solution at 225 nm, which is the wavelength at which enol ethers absorb (Kresge, A. J.; Sagatys, D. S.; Chen, H. L. J. Am. Chem. Soc. 1977, 99, 7228) was measured over time.
The absorbance of the solution at 225 nm was measured as a function of time.

As to `C/C(C(=O)O)=C(\C)C(=O)NCCCC[C@H](NC(=O)/C(C)=C(/C)C(=O)O)C(=O)N[C@@H](CC(C)C)C(=O)N[C@@H](CC(C)C)C(=O)N[C@@H](CCCCNC(=O)/C(C)=C(/C)C(=O)O)C(=O)N[C@@H](CC(C)C)C(=O)N[C@@H](CC(C)C)C(=O)N[C@@H](CC(C)C)C(=O)N[C@@H](CCCCNC(=O)/C(C)=C(/C)C(=O)O)C(=O)N[C@@H](CC(C)C)C(=O)N[C@@H](Cc1c[nH]c2ccccc12)C(=O)N[C@@H](CC(C)C)C(=O)N[C@@H](CCCCNC(=O)/C(C)=C(/C)C(=O)O)C(=O)N[C@@H](CC(C)C)C(=O)N[C@@H](CC(C)C)C(=O)N[C@@H](CCCCNC(=O)/C(C)=C(/C)C(=O)O)C(=O)N[C@@H](CC(C)C)C(=O)N[C@@H](CC(C)C)C(=O)N[C@@H](CC(C)C)C(=O)N[C@@H](CCCCNC(=O)/C(C)=C(/C)C(=O)O)C(=O)N[C@@H](CC(C)C)C(=O)N[C@@H](CC(C)C)C(=O)O` [2,3-dimethylmaleamic KL3] (X1-K(X1)LLK(X1)LLLK(X1)LWLK(X1)LLK(X1)LLLK(X1)LL-OH; N-terminus and C-terminus assumed), the “Relative Light Units (luciferase expression)” value stood at 49535 Relative Light Units in series [1] and 20927 Relative Light Units in series [2]. In addition, in series [1], the “Relative Light Units relative to Succinylated poly-L-lysine” value is given as 7.7. Moreover, the “rate constant for the conversion of maleamic acid to amine and anhydride” value in series [3] (40 mM sodium acetate buffer pH 5 and 1 mM cetyltrimetylammonium bromide) worked out at 0.087 s⁻¹. The hemolysis in series [4] (30 minutes, 37 C) turned out to be 4%; in series [4] (post incubation at pH 5.4 30 seconds) it was 85%.

For `C/C(C(N)=O)=C(\CCC(=O)O)C(=O)O` [2-propionic-3-methylmaleamic acid], the “rate of maleamic acid cleavage compared” value in series [3] is “the same as that for 2,3-dimethylmaleamic acids”.

Turning to KLLKLLLKLWLKLLKLLLKLL [KL3], in series [1], the “Relative Light Units (luciferase expression)” value amounted to 261 Relative Light Units and the “Relative Light Units relative to Succinylated poly-L-lysine” value came out at 0.04. Further, the hemolysis in series [4] (30 minutes, 37 C) stood at 86%.

For the compound `CC[C@H](C)[C@H](NC(=O)CN)C(=O)NCC(=O)N[C@@H](C)C(=O)N[C@H](C(=O)N[C@@H](CC(C)C)C(=O)N[C@@H](CCCCN)C(=O)N[C@H](C(=O)N[C@@H](CC(C)C)C(=O)N[C@H](C(=O)N[C@H](C(=O)NCC(=O)N[C@@H](CC(C)C)C(=O)N1CCC[C@H]1C(=O)N[C@@H](C)C(=O)N[C@@H](CC(C)C)C(=O)N[C@H](C(=O)N[C@@H](CO)C(=O)N[C@@H](Cc1c[nH]c2ccccc12)C(=O)N[C@H](C(=O)N[C@@H](CCCCN)C(=O)N[C@@H](CCCNC(=N)N)C(=O)N[C@@H](CCCCN)C(=O)N[C@@H](CCCNC(=N)N)C(=O)N[C@@H](CCC(N)=O)C(=O)N[C@@H](CCC(N)=O)C(N)=O)[C@@H](C)CC)[C@@H](C)CC)[C@@H](C)O)[C@@H](C)O)C(C)C)C(C)C` [Melittin, reference compound], the “A541 (red blood cell lysis)” value in the series with red blood cells came out at 1.881. The “cell death (propidium iodide staining of nuclei and loss of cells)” value with HELA cells is about 100%.

For “glycolic acid ethoxylate(4 units) 4-tert-buty-1,4-cyclohexadiene ether”, in series [5], the “rate constant of enol ether hydrolysis” value was 0.0159 min⁻¹.

The record behind these values is US7208314B2, “Compositions and methods for drug delivery using pH sensitive molecules” (priority 2002, dated 2007).
